Data on eleven compounds can be found in article PMC12434521, “Characterization of Next-Generation Inhibitors for the Inward-Rectifier Potassium Channel Kir2.1: Discovery of VU6080824” (ACS Medicinal Chemistry Letters, 2025).

Like-named read-outs stand apart in the source and are kept apart here.

The nature of this data set: Rat PK PBL cassette (i.v.). In kind it is in vivo, Sprague-Dawley rat. The settings on record: for Kp at 0.25 h: brain and plasma, read-out: Kp (total brain to plasma ratio); for Kp at 0.25 h / AUC / clearance / half-life / MRT / Vd / Kp (total brain to plasma ratio) / CLp / Elim. t1/2 / Vss: male SD rat, 0.2 mg/kg i.v. cassette; for Kp at 0.25 h / Kp (total brain to plasma ratio): 0.25 time point (15 min post dosing); for AUC / clearance / half-life / MRT / Vd / CLp / Elim. t1/2 / Vss: n = 1; for clearance: read-out: CLp; for half-life: read-out: Elim. t1/2 (converted); for Vd: read-out: Vss. An excerpt: While ML133 has found use as a Kir2.1 tool molecule across many disease models, the in vivo PK of this and related compounds within the dibenzylamine chemotype have not previously been characterized. As a highly efficient method for profiling the PK of a compound set, we therefore examined ML133 (alongside 9 additional next-generation Kir2.1 inhibitors) in our rat PK PBL cassette dosing platform (Table ). − From this experimental setup, administration of a 4-compound bolus dose, plus a standard control, can be used to determine a variety of PK parameters in a high-throughput fashion. Specifically, Sprague–Dawley (SD) rats were given 0.2 mg/kg of each Kir2.1 inhibitor (i.v. dosing, 4 compounds +1 control, total dose 1 mg/kg) with PK measured across set time points up to 24 h. Additionally, a separate cohort of animals was utilized to assess total plasma-brain levels (PBL, ratio reported as Kp) of compound at a 0.25 time point. In this fashion, standard plasma-based PK parameters (elimination t 1/2, […] (MRT), plasma clearance (CLp), and volume of distribution (Vss)) were measured alongside a parallel assessment of total brain exposure.
PK PBL Cassette Experimental Conditions
4 compounds plus one control were formulated as a solution in ethanol, PEG400, and DMSO (1:3:6 v/v, respectively) at a concentration of 1 mg/mL and administered as a single IV dose (1 mL/kg, 0.2 mg/kg per compound, total 1 mg/kg) to male, Sprague Dawley rats (n = 1) via injection into a surgically -implanted jugular vein catheter. Blood samples were collected serially from a surgically implanted carotid artery catheter in each animal over multiple post -administration time points (0.033, 0.117, 0.25, 0.5, 1, 2, 4, 7, and 24 hours) into chilled, K 2EDTA anticoagulant - fortified tubes and immediately placed on wet ice. The blood samples were then centrifuged (1700 rcf, 5 minutes, 4 °C) to ob tain plasma samples, which were stored at -80 °C until analysis […]
For determination of the brain over plasma ratio (K p), the same cassette of compounds plus control were formulated in ethanol, PEG400, and DMSO (1:3:6 v/v, respectively) and administered as a single IV dose (1 mL/kg, 0.2 mg/kg per compound, total 1 mg/kg) to male, Sprague Dawley rats ( n = 1) via injection into a surgically-implanted jugular vein catheter. At 15 min post dosing, blood sample was collected terminally into chilled, K 2EDTA anticoagulant-fortified tube and immediately placed on wet ice. The bloo d sample was then centrifuged (1700 rcf, 5 minutes, 4 °C) to obtain plasma sample. At the same post-administration time point, whole brain sample was obtained by rapid dissection, rinsed with PBS, and immediately frozen in individual tissue collection box (dry ice). All brain and plasma samples were stored at -80 °C until […]
Samples preparation for bioanalysis
Plasma samples from the in-life phase of the study were thawed at ambient temperature (benchtop), and then aliquots (20 µL per sample) were transferred to a 96-shallow-well (V-bottom) plate. Matrix-matched quality control (QC) samples and a standard curve of each analyte (1 mg/mL DMSO stock solution) were prepared in blank rat plasma (K2EDTA-treated) via serial dilution and transferred (20 µL each) to the plate along with multiple blank plasma samples. MeCN (120 µL) containing IS (10 nM carbamazepine) was added to each well of the plate to precipitate protein. The plate was then centrifuged (4000 rcf, 5 minutes, ambient temperature), and resulting supernatants (60 µL each) were transferred to a new 96-shallow-well (V-bottom) plate containing an equal volume (60 µL per well) of water (Milli-Q purified). The plate was then sealed in preparation for LC-MS/MS analysis.
Preparation of brain samples was identical to that of plasma samples except for the following modifications. While thawing, brains were weighed (inside their collection boxes using a universal empty collection box tare weight) and then subjected to mechanical homogenization […]

The mark [1] stands for this setting: Sprague-Dawley, plasma, iv, read-out: AUC.
[2] abbreviates: Sprague-Dawley, plasma, iv, read-out: MRT.

In the case of `COc1ccc(CNCc2ccc(-c3cccc(C#N)c3)cc2)cc1` [Compound 5t], the Kp at 0.25 h (Sprague-Dawley, iv) came out at 1.25. Moreover, the AUC (as a rule, the area under the concentration-time curve, a measure of exposure) under setting [1] amounted to 165 ng·h/mL. Moreover, where the note is “Sprague-Dawley, plasma, iv”, the clearance was 20.2 mL/min/kg, the half-life was 1.66 h and the Vd worked out at 1.2 L/kg. The MRT (as a rule, the average time that molecules of a dose stay in the body) under setting [2] amounted to 0.99 h.

`COc1ccc(CNCc2ccc(-c3ccccc3)cc2)cc1` [Compound 5k]: the Kp at 0.25 h (Sprague-Dawley, iv) stood at 1.82. In addition, the area under the curve (AUC) under setting [1] was 148 ng·h/mL. Moreover, for the setting “Sprague-Dawley, plasma, iv”, the clearance came to 22.6 mL/min/kg, the half-life is 1.68 h and the Vd came to 1.46 L/kg. The MRT under setting [2] was found to be 1.08 h.

Consider `COc1ccc(CNCc2cccc3ccccc23)cc1` [ML133, N-(4-methoxybenzyl)-1-(naphthalen-1-yl)methanamine, reference compound], for which, where the note is “Sprague-Dawley, iv”, the Kp at 0.25 h worked out at 3.36. Further, the exposure (AUC) under setting [1] was 104 ng·h/mL. Further, where the note is “Sprague-Dawley, plasma, iv”, the clearance came out at 31.9 mL/min/kg, the half-life was 0.75 h and the Vd was 1.5 L/kg. Under setting [2], the MRT was determined as 0.78 h.

As for `[2H]C([2H])([2H])Oc1cccc(-c2ccc(CNCc3ccc(OC)cc3)cc2)c1` [Compound 11], the “Kp (total brain to plasma ratio)” value came to 1.94, the AUC worked out at 127 ng·h/mL, the CLp stood at 26.2 mL/min/kg and the “Elim. t1/2” value is recorded as 1.54 h. In addition, the MRT is listed as 0.81 h and the Vss (in general, the apparent volume that relates the amount in the body to the concentration in plasma or blood) amounted to 1.27 L/kg.

For `COc1ccc(CNCc2cccc(-c3ccccc3)c2)cc1` [Compound 5j], the Kp at 0.25 h (Sprague-Dawley, iv) was found to be 4.23. Moreover, under setting [1], the AUC amounted to 105 ng·h/mL. Moreover, under “Sprague-Dawley, plasma, iv”, the clearance came to 31.7 mL/min/kg, the half-life is 1.18 h and the Vd came out at 1.9 L/kg. Moreover, the mean residence time (MRT) under setting [2] was determined as 1 h.

On to `[2H]C([2H])([2H])Oc1ccc(CNCc2ccc(-c3cccc(OC)c3)cc2)cc1` [Compound 9], for which the “Kp (total brain to plasma ratio)” value came out at 2.15, the AUC was determined as 131 ng·h/mL, the CLp amounted to 25.4 mL/min/kg and the “Elim. t1/2” value is 1.56 h. The mean residence time (MRT) was 1.02 h and the Vss turned out to be 1.55 L/kg.

As to `COc1ccc(CNCc2ccc3c(c2)OC(F)(F)O3)cc1` [Compound 5h], for the setting “Sprague-Dawley, iv”, the Kp at 0.25 h amounted to 2.13. Moreover, the AUC under setting [1] is 110 ng·h/mL. Besides, where the note is “Sprague-Dawley, plasma, iv”, the clearance is 30.4 mL/min/kg, the half-life was 1.33 h and the Vd was found to be 1.58 L/kg. The MRT under setting [2] worked out at 0.87 h.

In the case of `[2H]C([2H])([2H])Oc1ccc(CNCc2ccc(-c3cccc(OC([2H])([2H])[2H])c3)cc2)cc1` [Compound 13], the “Kp (total brain to plasma ratio)” value came to 2.06, the AUC was 126 ng·h/mL, the CLp turned out to be 26.4 mL/min/kg and the “Elim. t1/2” value amounted to 1.59 h. This compound registered an MRT of 1.00 h and a Vss of 1.58 L/kg.

For the compound `[2H]C([2H])([2H])Oc1ccc(CNCc2cccc3ccccc23)cc1` [Compound 7], for the setting “Sprague-Dawley, iv”, the Kp at 0.25 h is 3.3. For the same compound, the AUC under setting [1] stood at 146 ng·h/mL. For the setting “Sprague-Dawley, plasma, iv”, the clearance amounted to 22.8 mL/min/kg, the half-life is 1.39 h and the Vd came out at 1.7 L/kg. The MRT under setting [2] amounted to 1.24 h. Moreover, where the note is “rat i.v. cassette”, the “Fold longer t1/2 compared to ML133” value is on record as about 2 fold and the “Fold lower overall plasma clearance compared to ML133” value is recorded as about 1.4 fold.

For `COc1ccc(CNCc2ccc(-c3cccc(OC)c3)cc2)cc1` [Compound 5s, 1-(3′-Methoxy-[1,1’-biphenyl]-4-yl)-N-(4-methoxybenzyl)methanamine], the Kp at 0.25 h (Sprague-Dawley, iv) was determined as 1.81. Besides, the AUC under setting [1] was 189 ng·h/mL. For the same compound, where the note is “Sprague-Dawley, plasma, iv”, the clearance is 17.7 mL/min/kg, the half-life was 1.56 h and the Vd amounted to 1.06 L/kg. For the same compound, under setting [2], the MRT turned out to be 0.99 h.

Take `COc1ccc(CNCc2ccc(-c3cccc(F)c3)cc2)cc1` [Compound 5p]: under “Sprague-Dawley, iv”, the Kp at 0.25 h turned out to be 2.27. In addition, the AUC under setting [1] is 109 ng·h/mL. Where the note is “Sprague-Dawley, plasma, iv”, the clearance came out at 30.6 mL/min/kg, the half-life was 0.69 h and the Vd was 1.39 L/kg. In addition, under setting [2], the MRT stood at 0.76 h.
